Consider 24 compounds from patent publication US20250145633A1, “SUBSTITUTED FURANOPYRIMIDINE COMPOUNDS AS PDE1 INHIBITORS” (Dart NeuroScience, LLC, priority 2017, published 2025).

Bounds are passed on as bounds.

The assay concerns the target human PDE1B enzyme (Homo sapiens (Human), UniProt Q01064). Kind of assay: IMAP TR-FRET PDE1B enzymatic assay. The class given is biochemical. Particulars: negative log of half-maximal molar inhibitory concentration, 200 nM FAM-cAMP, values given as bins; for IC50: read-out: PDE1b (pIC50) (converted). Summed up: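 Full-length GST-tagged human PDE1B (250 pg/well) in IMAP BSA buffer with 10 U/ml calmodulin and 2.5 mM CaCl2; compound pre-incubated 5 min at room temperature, then 200 nM (final) FAM-cAMP for 30 min. IMAP binding reagent/Tb added, 1 h; TR-FRET 520/490 ratio read. IC50 from sigmoidal dose-response fit.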
(In general: In TR-FRET formats the signal depends on donor and acceptor labels being close together.)

For `Cc1ccc2c(n1)CCN(C(=O)c1c(C)oc3ncnc(NC4(C)CC4)c13)C2` [Example 284, 6-Methyl-5-(2-methyl-5,6,7,8-tetrahydro-1,6-naphthyridine-6-carbonyl)-N-(1-methylcyclopropyl)furo[2,3-d]pyrimidin-4-amine], the IC50 is 10 to 100 nM.
Same read-out and setting: the result for `Cc1oc2ncnc(NC3(C)CC3)c2c1C(=O)N1CCc2c(ccnc2Cl)C1` [Example 285, 5-(5-Chloro-1,2,3,4-tetrahydro-2,6-naphthyridine-2-carbonyl)-6-methyl-N-(1-methylcyclopropyl)furo[2,3-d]pyrimidin-4-amine] reads 10 to 100 nM; that for `Cc1oc2ncnc(NC3(C)CC3)c2c1C(=O)N1CCc2ccc(Cl)nc2C1` [Example 286, 5-(2-Chloro-5,6,7,8-tetrahydro-1,7-naphthyridine-7-carbonyl)-6-methyl-N-(1-methylcyclopropyl)furo[2,3-d]pyrimidin-4-amine], 10 to 100 nM; that for `Cc1oc2ncnc(NC3(C)CC3)c2c1C(=O)N1CCc2nc(Cl)ccc2C1` [Example 287, 5-(2-Chloro-5,6,7,8-tetrahydro-1,6-naphthyridine-6-carbonyl)-6-methyl-N-(1-methylcyclopropyl)furo[2,3-d]pyrimidin-4-amine], 10 to 100 nM.
On to `Cc1oc2ncnc(NC3(C)CC3)c2c1C(=O)N1CCc2nnc(Cl)cc2C1` [Example 288, 5-{3-Chloro-5H,6H,7H,8H-pyrido[4,3-c]pyridazine-6-carbonyl}-6-methyl-N-(1-methylcyclopropyl)furo[2,3-d]pyrimidin-4-amine], for which the IC50 was 100 to 1000 nM.
The same measure, in the same setting: the result for `Cc1oc2ncnc(NC3(C)CC3)c2c1C(=O)N1CCc2nc(Cl)ncc2C1` [Example 289, 5-{2-Chloro-5H,6H,7H,8H-pyrido[4,3-d]pyrimidine-6-carbonyl}-6-methyl-N-(1-methylcyclopropyl)furo[2,3-d]pyrimidin-4-amine] reads 10 to 100 nM; that for `Cc1oc2ncnc(NC3(C)CC3)c2c1C(=O)N1CCc2nc(C3CCOCC3)ccc2C1` [Example 290, 6-Methyl-N-(1-methylcyclopropyl)-5-[2-(oxan-4-yl)-5,6,7,8-tetrahydro-1,6-naphthyridine-6-carbonyl]furo[2,3-d]pyrimidin-4-amine], 10 to 100 nM; that for `Cc1oc2ncnc(NC3(C)CC3)c2c1C(=O)NCc1cccnc1F` [Example 291, N-[(2-Fluoropyridin-3-yl)methyl]-6-methyl-4-[(1-methylcyclopropyl)amino]furo[2,3-d]pyrimidine-5-carboxamide], 10 to 100 nM.
The same measure, in the same setting: the result for `Cc1oc2ncnc(NC3(C)CC3)c2c1C(=O)NCc1ncc(F)cn1` [Example 292, N-[(5-Fluoropyrimidin-2-yl)methyl]-6-methyl-4-[(1-methylcyclopropyl)amino]furo[2,3-d]pyrimidine-5-carboxamide] reads 10 to 100 nM.
On the same count and under the same terms, for `Cc1oc2ncnc(NC3(C)CC3)c2c1C(=O)NCc1ccc(F)nc1` [Example 293, N-[(6-Fluoropyridin-3-yl)methyl]-6-methyl-4-[(1-methylcyclopropyl)amino]furo[2,3-d]pyrimidine-5-carboxamide] the value was 10 to 100 nM; for `Cc1oc2ncnc(NC3(C)CC3)c2c1C(=O)N1CCc2cnc(C(C)C)nc2C1` [Example 294, 6-Methyl-N-(1-methylcyclopropyl)-5-[2-(propan-2-yl)-5H,6H,7H,8H-pyrido[3,4-d]pyrimidine-7-carbonyl]furo[2,3-d]pyrimidin-4-amine], 10 to 100 nM; for `Cc1oc2ncnc(NC3(C)CC3)c2c1C(=O)N1CCCCC(c2ccc(F)cc2)C1` (stereo not drawn) [Example 295, 5-[3-(4-Fluorophenyl)azepane-1-carbonyl]-6-methyl-N-(1-methylcyclopropyl)furo[2,3-d]pyrimidin-4-amine], 10 to 100 nM.
Turning to `Cc1oc2ncnc(NC3(C)CC3)c2c1C(=O)N1CCCC(c2ccc(F)cc2)CC1` (stereo not drawn) [Example 296, 5-[4-(4-Fluorophenyl)azepane-1-carbonyl]-6-methyl-N-(1-methylcyclopropyl)furo[2,3-d]pyrimidin-4-amine], the “PDE1b (pIC50)” value is listed as over 8.
For `Cc1oc2ncnc(NC3(C)CC3)c2c1C(=O)NC1(CCO)CC1` [Example 297, N-[1-(2-Hydroxyethyl)cyclopropyl]-6-methyl-4-[(1-methylcyclopropyl)amino]furo[2,3-d]pyrimidine-5-carboxamide], the IC50 is 10 to 100 nM.
Regarding `COc1ccc(C2(NC(=O)c3c(C)oc4ncnc(NC5(C)CC5)c34)CC2)cc1F` [Example 298, N-[1-(3-Fluoro-4-methoxyphenyl)cyclopropyl]-6-methyl-4-[(1-methylcyclopropyl)amino]furo[2,3-d]pyrimidine-5-carboxamide], the “PDE1b (pIC50)” value was over 8.
`Cc1oc2ncnc(NC3(C)CC3)c2c1C(=O)N1CCc2cnc(C3CC3)nc2C1` [Example 299, 5-{2-Cyclopropyl-5H,6H,7H,8H-pyrido[3,4-d]pyrimidine-7-carbonyl}-6-methyl-N-(1-methylcyclopropyl)furo[2,3-d]pyrimidin-4-amine]: the IC50 is 10 to 100 nM.
As for `Cc1oc2ncnc(NC3(C)CC3)c2c1C(=O)NC1(C2CCOCC2)CC1` [Example 300, 6-Methyl-4-[(1-methylcyclopropyl)amino]-N-[1-(oxan-4-yl)cyclopropyl]furo[2,3-d]pyrimidine-5-carboxamide], the IC50 is 10 to 100 nM.
Take `Cc1oc2ncnc(NC3(C)CC3)c2c1C(=O)N1CCC(c2ccccn2)CC1` [Example 301, 6-Methyl-N-(1-methylcyclopropyl)-5-[4-(pyridin-2-yl)piperidine-1-carbonyl]furo[2,3-d]pyrimidin-4-amine]: the “PDE1b (pIC50)” value is given as over 8.
Regarding `Cc1oc2ncnc(NC3(C)CC3)c2c1C(=O)NC(C)c1ncc(F)cn1` (stereo not drawn) [Example 302, N-[1-(5-Fluoropyrimidin-2-yl)ethyl]-6-methyl-4-[(1-methylcyclopropyl)amino]furo[2,3-d]pyrimidine-5-carboxamide], the IC50 was 10 to 100 nM.
Turning to `Cc1oc2ncnc(NC3(C)CC3)c2c1C(=O)N1CCc2nc(F)ncc2C1` [Example 303, 5-{2-Fluoro-5H,6H,7H,8H-pyrido[4,3-d]pyrimidine-6-carbonyl}-6-methyl-N-(1-methylcyclopropyl)furo[2,3-d]pyrimidin-4-amine], the IC50 was 100 to 1000 nM.
Consider `COc1ccc(C(C)NC(=O)c2c(C)oc3ncnc(NC4(C)CC4)c23)cc1F` (stereo not drawn) [Example 304, N-[1-(3-Fluoro-4-methoxyphenyl)ethyl]-6-methyl-4-[(1-methylcyclopropyl)amino]furo[2,3-d]pyrimidine-5-carboxamide], for which the “PDE1b (pIC50)” value is listed as over 8.
Regarding `COc1ccc([C@H](C)NC(=O)c2c(C)oc3ncnc(NC4(C)CC4)c23)c(F)c1` [Example 305, N-[(1S)-1-(2-Fluoro-4-methoxyphenyl)ethyl]-6-methyl-4-[(1-methylcyclopropyl)amino]furo[2,3-d]pyrimidine-5-carboxamide], the IC50 is 10 to 100 nM.
For the compound `COc1ccc([C@@H](C)NC(=O)c2c(C)oc3ncnc(NC4(C)CC4)c23)c(F)c1` [Example 306, N-[(1R)-1-(2-Fluoro-4-methoxyphenyl)ethyl]-6-methyl-4-[(1-methylcyclopropyl)amino]furo[2,3-d]pyrimidine-5-carboxamide], the “PDE1b (pIC50)” value is listed as over 8.
With `Cc1oc2ncnc(NC3(C)CC3)c2c1C(=O)N1CCc2cnc(F)nc2C1` [Example 307, 5-{2-Fluoro-5H,6H,7H,8H-pyrido[3,4-d]pyrimidine-7-carbonyl}-6-methyl-N-(1-methylcyclopropyl)furo[2,3-d]pyrimidin-4-amine], the IC50 is 10 to 100 nM.
